The results in this text go back to patent EP1192131B1, “METHOD OF INHIBITING AMYLOID PROTEIN AGGREGATION AND IMAGING AMYLOID DEPOSITS USING ISOINDOLINE DERIVATIVES” (Warner-Lambert Company LLC, priority 1999, dated 2000).

For one test, the target named is T1, Aβ (1-42) (Homo sapiens, UniProt P05067).
T1 construct: Required Aβ (1-42)(California Peptide) was dried from its hexafluoroisopropanol (HFIP) stock solution; purchased California Peptide
Nature of the test: BATYM assay, Aβ (1-42) aggregation, Thioflavin T fluorescence. It counts as biochemical. The protocol: Required Aβ (1-42)(California Peptide) was dried from its hexafluoroisopropanol (HFIP) stock solution. The Aβ (1-42) was dissolved in dimethylsulfoxide (DMSO) and then mixed with phosphate buffered saline (PBS) (pH 7.4). The mixed Aβ (1-42) solution was filtered through a […] Omnipore membrane syringe filter (Millipore, Bedford, MA). The compound to be tested in DMSO (50 times concentrate) was put into each well (0.5 µL/well) of a 96-well plate. The Aβ (1-42) solution was added into each well (24.5 µL/well). The plate was centrifuged at 1,000 g for 5 minutes and incubated at 37°C for 1 day (Aβ 1-42; final concentration 100 µM).
After incubation Thioflavin T (ThT) (30 µM) solution in glycine-NaOH buffer (pH 8.5, 50 mM) was added into each well (250 µL/well), fluorescence was measured (ex. 440/20 nm; em 485/20 nm) using a fluorescence plate reader. The inhibitory activity was calculated as the reduction of fluorescence with the following formula: Inhibition (%) = {(F(Aβ)-F(Aβ+compound)}/{F(Aβ)-F (solvent+compound)} × 100 [formula]
The IC50s (concentration of test compound required to cause a 50% inhibition of aggregation) were calculated by a curve fitting program using the following equation. The data were obtained from two different experiments in triplicate. Inhibition (x) = 100-100/{1 + (x/IC50)^n }, [formula] x = concentration of tested compound (M), IC50 = (M), n = Hill coefficient.

A further test concerns the target T2, Aβ (1-40) peptide (Homo sapiens, UniProt P05067).
T2 construct: 10 µL 0.5 mg/mL Aβ (1-40) peptide in 20% HFIP
Nature of the test: BAPA (Beta-Amyloid Peptide Aggregation, pH 6.0), filtration endpoint assay. The format is biochemical. How it is done: BAPA (Beta-Amyloid Peptide Aggregation
This assay is used to provide a measure of inhibition by a compound against the aggregation behavior of the beta amyloid peptide.
The purpose of this assay is to provide a higher volume method of assaying the amount of beta amyloid aggregation using an endpoint assay based on filtration. In this assay, hexafluoroisopropanol (HFIP) is used to break down the initial amyloid peptide to a monomer state and use a concentration of 33 µM which is high enough so that aggregation will occur at pH 6.0 in several hours.
β-Amyloid Peptide Aggregation. pH 6 0 (BAPA)
In a 96-well plate (Costar 3794), we add 25 µL 50 mM Phosphate Buffer, pH 6.0, 10 µL 0.5 mg/mL Aβ (1-40) peptide in 20% HFIP + 0.1 µL/assay radioiodinated ^125I Aβ (1-40) [^125I Aβ(1-40)], and 1 µL of the compound to be tested starting at 50 mM with a concentration of DMSO <1%. Then, we incubate for 2 to 4 hours at room temperature. We stop the reaction with 200 µL of 50 mM phosphate buffer, pH 6.0, and filter it through a 0.2 µm 96-well filter plate (Millipore MAGU N22) We wash the filter plate with 100 µL of the same phosphate buffer. Aggregation was detected on a Microbeta counter after impregnating the filters with Meltilex (1450-441) and is corrected for background

Where [1] appears, read: read-out: BATYM IC50, Aβ 1-42 final concentration 100 µM, 37°C, 1 day, letter in parentheses = lot of compound (no letter = Lot P).
Setting [2] is: read-out: BAPA IC50; Aβ (1-40) 33 µM, pH 6.0, 2 to 4 hours at room temperature; letter in parentheses = lot of compound (no letter = Lot P).
The mark [3] stands for this setting: Aβ 1-42 final concentration 100 µM, 37°C, 1 day, letter in parentheses = lot of compound (no letter = Lot P), read-out: BATYM IC50.
Where [4] appears, read: Aβ (1-40) 33 µM, pH 6.0, 2 to 4 hours at room temperature; letter in parentheses = lot of compound (no letter = Lot P); read-out: BAPA IC50.

pIC50: −log10 of the molar value. Several values for one entry are separate records, joined by “and”; a condition that tells them apart may be missing. Equal values may be shown once. Read-outs that look alike come from different tables or passages of the source.

T1 sequence (P05067 672-713): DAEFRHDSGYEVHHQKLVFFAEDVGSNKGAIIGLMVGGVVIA
T2 sequence (P05067 672-711): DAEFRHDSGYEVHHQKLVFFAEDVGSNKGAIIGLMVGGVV

As for `O=C(O)c1ccccc1Nc1ccc2c(c1)CN(c1ccc(Cl)c(C(F)(F)F)c1)C2` [Example 10, 2-[2-(4-Chloro-3-trifluoromethylphenyl)-2,3-dihydro-1H-isoindol-5-ylamino]benzoic acid], the pIC50 at Aβ (1-42) (setting [1]) is 4.46; on Aβ (1-40) peptide (setting [2]), 4.80.

In the case of `O=C(O)c1cc([N+](=O)[O-])ccc1Nc1ccc2c(c1)CN(c1cccc(F)c1)C2` [Example 20, 2-[2-(3-Fluoro-phenyl)-2,3-dihydro-1H-isoindol-5-ylamino]-5-nitro-benzoic acid], the figures for the pIC50 at Aβ (1-42) (setting [3]) and at Aβ (1-40) peptide (setting [4]) were 4.94 and less than 4.22, respectively.

`Cc1ccc(N2Cc3ccc(Nc4ccc([N+](=O)[O-])cc4C(=O)O)cc3C2)cc1C` [Example 12, 2-[2-(3,4-Dimethyl-phenyl)-2,3-dihydro-1H-isoindol-5-ylamino]-5-nitro-benzoic acid]: the pIC50 is 4.93 on Aβ (1-42) (setting [3]) and 5.30 on Aβ (1-40) peptide (setting [4]).

As to `COc1cccc(N2Cc3ccc(Nc4ccc([N+](=O)[O-])cc4C(=O)O)cc3C2)c1` [Example 21, 2-[2-(3-Methoxy-phenyl)-2,3-dihydro-1H-isoindol-5-ylamino]-5-nitro-benzoic acid], the pIC50 at Aβ (1-42) (setting [3]) was 5.02; at Aβ (1-40) peptide (setting [4]), less than 4.22.

With “2-[2-(3,4-Dimethylphenyl)-2,3-dihydro-1H-isoindol-5-ylamino]benzoic acid [Example 9]”, the pIC50 on Aβ (1-42) (setting [3]) is 4.48; on Aβ (1-40) peptide (setting [4]), 4.89.

In the case of `O=C(O)c1ccccc1Nc1ccc2c(c1)CN(c1cccc(F)c1)C2` [Example 22, 2-[2-(3-Fluoro-phenyl)-2,3-dihydro-1H-isoindol-5-ylamino]-benzoic acid], the pIC50 at Aβ (1-42) (setting [3]) is 4.08; at Aβ (1-40) peptide (setting [4]), less than 4.22.

Regarding `COc1cccc(N2Cc3ccc(Nc4ccccc4C(=O)O)cc3C2)c1` [Example 26, 2-[2-(3-Methoxy-phenyl)-2,3-dihydro-1H-isoindol-5-ylamino]-benzoic acid], the pIC50 on Aβ (1-42) (setting [3]) is 4.19; on Aβ (1-40) peptide (setting [4]) it was less than 4.22.

In the case of `COc1cc(N2Cc3ccc(Nc4ccccc4C#N)cc3C2)cc(OC)c1OC` [Example 25, 2-[2-(3,4,5-Trimethoxy-phenyl)-2,3-dihydro-1H-isoindol-5-ylamino]-benzonitrile], the figures for the pIC50 on Aβ (1-42) (setting [3]) and on Aβ (1-40) peptide (setting [4]) were less than 4.00 and 4.60, respectively.

Take `Nc1ccc(Nc2ccc3c(c2)CN(c2ccc(Cl)c(Cl)c2)C3)c(C(=O)O)c1` [Example 17, 5-Amino-2-[2-(3,4-dichloro-phenyl)-2,3-dihydro-1H-isoindol-5-ylamino]-benzoic acid]: the pIC50 at Aβ (1-42) (setting [3]) was 4.70; on Aβ (1-40) peptide (setting [4]), 4.40.

For the compound `O=C(O)c1cc([N+](=O)[O-])ccc1Nc1ccc2c(c1)CN(c1ccccc1)C2` [Example 18, 5-Nitro-2-(2-phenyl-2,3-dihydro-1H-isoindol-5-ylamino)-benzoic acid], the pIC50 at Aβ (1-42) (setting [3]) was 4.78; at Aβ (1-40) peptide (setting [4]), 4.01.

Consider “2-[2-(3-chlorophenyl)-2,3-dihydro-1H-isoindol-5-ylamino]benzoic acid [Example 7]”, for which the figures for the pIC50 at Aβ (1-42) (setting [3]) and at Aβ (1-40) peptide (setting [4]) were 4.43 and 4.55, respectively.

For the compound `O=C(O)c1cc([N+](=O)[O-])ccc1Nc1ccc2c(c1)CN(c1ccc(Cl)cc1)C2` [Example 15, 2-[2-(4-Chloro-phenyl)-2,3-dihydro-1H-isoindol-5-ylamino]-5-nitro-benzoic acid], the pIC50 at Aβ (1-42) (setting [3]) was 4.49; on Aβ (1-40) peptide (setting [4]), less than 4.00.

In the case of “2-[2-(4-chlorophenyl)-2,3-dihydro-1H-isoindol-5-ylamino]benzoic acid [Example 8]”, the figures for the pIC50 on Aβ (1-42) (setting [3]) and at Aβ (1-40) peptide (setting [4]) were 4.48 and 4.72, respectively.

As to `O=C(O)c1ccccc1Nc1ccc2c(c1)CN(c1ccc(Cl)c(Cl)c1)C2` [Example 4, 2-[2-(3,4-Dichlorophenyl)-2,3-dihydro-1H-isoindol-5-ylamino]benzoic acid], the pIC50 at Aβ (1-42) (setting [3]) is 4.58 and 4.65; on Aβ (1-40) peptide (setting [4]) it was 4.00 and < 4.00 and 4.03.

For the compound `COc1cc(Nc2ccc3c(c2)CN(c2ccc(Cl)c(Cl)c2)C3)c(C(=O)O)cc1[N+](=O)[O-]` [Example 6, 2-[2-(3,4-Dichlorophenyl)-2,3-dihydro-1H-isoindol-5-ylamino]-4-methoxy-5-nitro-benzoic acid], the pIC50 is 4.87 and 4.84 at Aβ (1-42) (setting [3]); 4.85 at Aβ (1-40) peptide (setting [4]).

Turning to `O=C(O)c1cc([N+](=O)[O-])ccc1Nc1ccc2c(c1)CN(c1ccc(Cl)c(C(F)(F)F)c1)C2` [Example 19, 2-[2-(4-Chloro-3-trifluoromethyl-phenyl)-2,3-dihydro-1H-isoindol-5-ylamino]-5-nitro-benzoic acid], the pIC50 was 4.89 on Aβ (1-42) (setting [1]) and less than 5.00 on Aβ (1-40) peptide (setting [2]).

Consider `O=C(O)c1cc(F)ccc1Nc1ccc2c(c1)CN(c1ccc(Cl)c(Cl)c1)C2` [Example 23, 2-[2-(3,4-Dichloro-phenyl)-2,3-dihydro-1H-isoindol-5-ylamino]-5-fluoro-benzoic acid], for which the pIC50 at Aβ (1-42) (setting [3]) is 4.47; at Aβ (1-40) peptide (setting [4]), 4.21.

Turning to `Clc1ccc(N2Cc3ccc(Nc4ccccc4-c4nnn[nH]4)cc3C2)cc1Cl` [Example 16, [2-(3,4-Dichloro-phenyl)-2,3-dihydro-1H-isoindol-5-yl]-[2-(1H-tetrazol-5-yl)-phenyl]-amine], the pIC50 was 4.53 on Aβ (1-42) (setting [3]) and 4.07 at Aβ (1-40) peptide (setting [4]).
